# Reference: US12349973B2 (priority 2019, dated 2025)
# Columns and labels:
# [1] = test system: muscarinic receptors within the eye; conditions: in vivo; cited from earlier work
# [2] = target: human iris muscarinic receptors; conditions: cited from earlier work
# [3] = test system: pupil light response / muscarinic receptors within the iris; design: species or system human; conditions: in vivo
# [4] = test system: accommodation control system / ciliary body muscarinic receptors; conditions: in vivo
SMILES,duration of effects [1] [days],duration of pupil dilatation and paralysis of accommodation [1],apparent dissociation constant KA [2] [nM],baseline difference in pupil size [3] [mm],estimated level of receptor blockade 1-(V400post/V400pre) [3] [%],peak difference in pupil constriction (light response) [3] [mm],ability to accommodate ([4]; human),mean increase in the AC/A ratio over baseline [4] [%],receptoral blockade suggested by AC/A increase [4] [%]
CN1[C@@H]2CC[C@H]1C[C@@H](OC(=O)C(CO)c1ccccc1)C2 (stereo partly drawn) [atropine],6 to 12,up to 7 days,0.4 to 0.7,0.6,35,1.6,–,–,–
CN(C)CCOC(=O)C(c1ccccc1)C1(O)CCCC1 (stereo not drawn) [cyclopentolate],–,–,–,–,–,–,maintained the ability to accommodate sufficiently to read at 33 cm,173,42
